“Also recorded” adds a separate entry of the source.
Experiments:
IDO1 = settings: following oral administration; cited from earlier work
[1] = test system: patients with advanced or recurrent solid tumours; settings: cited from earlier work
[2] = test system: Japanese patients with advanced solid tumours
Procedure: The study consisted of two stages (Fig. 1).
Recruitment of patients to each dose level was sequential using the standard 3 + 3 study design. […] At each dose level, treatment was continued until disease progression, DLT or other adverse event (AE) that would hinder the patient’s participation in the study, or until the patient requested discontinuation from the study.
Safety, pharmacokinetics, efficacy, exploratory pharmacodynamics and genetic outcomes were assessed in this study. The safety outcomes were the incidence, type, severity and time of onset of DLTs, AEs and treatment-related AEs (TRAEs). […] In addition, the maximum tolerated dose (MTD) was determined on the basis of DLTs.
(§1) Safety endpoints were analysed in the safety population, which consisted of patients who received ≥1 dose of the study drug. Efficacy endpoints were analysed in the full analysis set, which consisted of patients who received ≥1 dose of the study drug and underwent ≥1 post-baseline efficacy assessment. A summary of AEs, TRAEs and DLTs by mapped term, appropriate thesaurus level and severity was provided for each cohort. Summary statistics, including mean, standard deviation, coefficient of variation, median, and minimum and maximum, were calculated for pharmacokinetic and pharmacodynamic parameters.
Adverse events that could be considered dose-limiting toxicities
Grade 4 neutropenia persisting for ≥5 days or requiring treatment with G-CSF
Grade 4 thrombocytopenia or grade 3 thrombocytopenia requiring platelet transfusion
Grade ≥3 non-hematologic toxicity (excluding transient electrolyte abnormalities) Abnormal
toxicity will be assessed as DLTs only if they meet the following criteria. Grade ≥3 laboratory
ALP: A grade ≥3 increase persisting for ≥3 days will be assessed as a DLT.
Diarrhoea, nausea, vomiting, skin toxicity: A grade ≥3 event persisting for ≥1 week

[3] = Plasma pharmacokinetics of navoximod in phase I study; settings: for Dose proportionality of AUC and Cmax: 200-1000 mg
Procedure: The efficacy outcomes were the response rate, disease control rate, progression-free survival (PFS) and duration of response. Efficacy outcomes were assessed using the Response Evaluation Criteria in Solid Tumours (RECIST) version 1.1. Plasma concentrations of kynurenine and tryptophan and their ratios and the presence of UGT1A1*6 and UGT1A1*28 polymorphisms were the exploratory outcomes of this study.
as §1
Schedule for blood sampling for pharmacokinetic assessments
Visit pharmacokinetics kynurenine/tryptophan
(time window) pharmacodynamics (time
Cycle 0 Day 1 5 min before dosing (−30 min) 5 min before dosing (−30 min)
30 min after dosing (±5 min) 30 min after dosing (±5 min)
1 hr after dosing (±5 min) 1 hr after dosing (±5 min)
2 hr after dosing (±5 min) 2 hr after dosing (±5 min)
4 hr after dosing (±10 min) 4 hr after dosing (±10 min)
6 hr after dosing (±30 min) 6 hr after dosing (±30 min)
8 hr after dosing (±30 min) 8 hr after dosing (±30 min)
12 hr after dosing (±30 min) 12 hr after dosing (±30 min)
Cycle 0 Day 2 24 hr after dosing on Cycle 0 Day 1 24 hr after dosing on Cycle 0 Day 1
Cycle 0 Day 3 48 hr after dosing on Cycle 0 Day 1 –
(±2 hr), before dosing on Cycle 1
Cycle 1 Day 8 5 min before dosing (−30 min) –
Cycle 2 Day 1 5 min before dosing (−30 min) 5 min before dosing (−30 min)
12 hr after first dose (±60 min), 12 hr after first dose (±60 min),
before second dose before second dose
Cycle 4 Day 1 5 min before dosing (−30 min) –
Cycle 9 Day 1 5 min before dosing (−30 min) –
Last observation Any time –
12 hr after dosing (±60 min) 12 hr after dosing (±60 min)
(±2 hr), before dosing on Cycle 1, Day

advanced solid tumours = assay: Efficacy by RECIST version 1.1 (best overall response, disease control, PFS); settings: Stage 1
Procedure: The efficacy outcomes were the response rate, disease control rate, progression-free survival (PFS) and duration of response. Efficacy outcomes were assessed using the Response Evaluation Criteria in Solid Tumours (RECIST) version 1.1.
Efficacy endpoints were analysed in the full analysis set, which consisted of patients who received ≥1 dose of the study drug and underwent ≥1 post-baseline efficacy assessment.

Which “Reduction of plasma and tissue kynurenine concentrations” value (IDO1) does the source give for O[C@H](C[C@H]1c2c(F)cccc2-c2cncn21)[C@H]1CC[C@H](O)CC1 [Navoximod] here?
The value was “approximately 50%”.

And the MTD ([1]; monotherapy 100-800 mg twice daily, 22 patients)?
Its MTD is “not reached”.

And the “CRs or PRs” value ([1]; monotherapy)?
Its value is “no CRs or PRs were observed”.

What about the Half-life ([1]; monotherapy) of the same molecule?
Its Half-life is “approximately 12 h”.

And the Linearity of pharmacokinetics ([1]; monotherapy)?
The Linearity of pharmacokinetics was “linear pharmacokinetics”.

And the “Time to peak plasma concentration” value ([1]; monotherapy)?
The value was “approximately 60 min”.

What about the “Decrease of plasma kynurenine levels” value ([1]; navoximod 400 mg, 600 mg or 800 mg, 2–4 h after administration) of the same molecule?
The value was 25–30%.

What about the “Patients with Grade 3 or higher AEs” value ([1]; two patients of 22, lower gastrointestinal haemorrhage, diverticulitis) of the same molecule?
Its value is 9%.

And the “Maximum tolerated dose (MTD)” value ([2]; Stage 1, monotherapy up to 1000 mg BID)?
The value was “not reached”.

And the “Any TRAE, All grades” value ([2]; human, in vivo)?
The value was 6 n.

And the “Any TRAE, Grade ≥ 3” value ([2]; human, in vivo)?
The value was 2 n.

What about the “Chromaturia, All grades” value ([2]; human, in vivo) of the same molecule?
Its value is 5 n.

What about the “Chromaturia, Grade ≥ 3” value ([2]; human, in vivo) of the same molecule?
Its value is 0 n.

And the “Grade 4 or 5 TRAEs” value ([2]; human, in vivo)?
Its value is “No grade 4 or 5 TRAEs were observed”.

What about the Incidence of chromaturia ([2]; human, in vivo) of the same molecule?
The Incidence of chromaturia was 55%.

What about the “Maculopapular rash, All grades” value ([2]; human, in vivo) of the same molecule?
Its value is 2 n.

What about the “Maculopapular rash, Grade ≥ 3” value ([2]; human, in vivo) of the same molecule?
The value was 1 n.

What about the “Patients with Grade ≥ 3 TRAEs” value ([2]; human, in vivo) of the same molecule?
The value was 20%.

And the “Patients with TRAE chromaturia, any grade” value ([2]; human, in vivo)?
The value was 50%.

And the “Patients with TRAE maculopapular rash, any grade” value ([2]; human, in vivo)?
The value was 20%.

What about the “Patients with TRAEs” value ([2]; human, in vivo) of the same molecule?
The value was 60%.

And the “Symptomatic grade 3 or higher TRAE maculopapular rash” value ([2]; human, in vivo)?
The value was 5%.

And the “Dose-corrected navoximod exposure by UGT1A1 genotype” value ([3]; patients with UGT1A1 −/*28)?
Its value is “higher”.

What about the “Dose-corrected navoximod exposure by UGT1A1 genotype” value ([3]; patients with UGT1A1 −/−, −/*6 and *6/*6) of the same molecule?
Its value is “similar”.

And the “Dose proportionality of AUC and Cmax” value ([3]; single oral dose)?
Its value is “dose-proportional”.

And the “Dose proportionality of AUC and Cmax” value ([3]; single oral dose, listed as navoximod)?
The value was “linear pharmacokinetics; also recorded: changed dose-proportionally”.

What about the “Time at which mean plasma concentration peaked” value ([3]; single oral dose, Stage 1 or Stage 2) of the same molecule?
The value was 15 to 60 min.

What about the “Complete response (CR) and partial response (PR)” value (advanced solid tumours) of the same molecule?
The value was “not observed”.

And the “PFS, range” value (advanced solid tumours)?
The value was 9 to 259 days.

And the “Best overall response progressive disease (PD)” value (advanced solid tumours; all doses, n = 10)?
The value was “five”.

What about the “Patients with stable disease” value (advanced solid tumours; all doses, n = 10) of the same molecule?
The value was 50%.

And the “Best overall response progressive disease (PD)” value (advanced solid tumours; navoximod 400 mg)?
The value was 3 n.

What about the “Best overall response progressive disease (PD)” value (advanced solid tumours; navoximod 600 mg) of the same molecule?
The value was 2 n.

Reference: paper PMC7066107 (Investigational New Drugs, 2019)
